Source: patent US20080200404A1, “Novel Antimalarial 9A-Carbamoyl-Aminoalkyl and 9A-Thiocarbamoyl-Aminoalkyl Azalides” (priority 2005, published 2008)
≈ marks a conversion by molar mass, not a printed value.

Assays:
Type in all cases: cell-based
[1] = system: Plasmodium falciparum TM91C235; test: In vitro antimalarial [3H]-hypoxanthine incorporation assay, TM91C235; details: P. falciparum TM91C235 (multiple drug resistant isolate), 72 hours exposure; for IC50: Plasmodium falciparum
Procedure, shortened: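 Multidrug-resistant P. falciparum TM91C235 was run at 0.4% parasitemia and 1% hematocrit in folate/PABA-free RPMI-1640 with ALBUMAX, at 37° C under 5% CO2/5% O2. Compound was tested in duplicate at 25,000, 2,500 and 25 ng/ml, preexposed 48 h, then [3H]-hypoxanthine was added (72 h total). Counts are expressed relative to untreated parasite controls.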

[2] = system: Plasmodium falciparum clone CDC/Sierra Leone I (D-6); test: In vitro antimalarial [3H]-hypoxanthine incorporation serial dilution assay, D6; details: P. falciparum D6, 72 hours exposure; for IC50: Plasmodium falciparum, D6, 72 h, read-out: IC50 D6
Procedure, shortened: (§1)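 Blood-stage cultures in RPMI-1640 with 6% A+ erythrocytes and human plasma or ALBUMAX, 37° C under 5% CO2/5% O2. Compounds in two-fold dilutions over 11 concentrations; [3H]-hypoxanthine incorporation after 72 h total incubation, CPM normalised to untreated parasite controls; IC50 by non-linear logistic fit.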

[3] = system: Plasmodium falciparum clone CDC/Indochina III (W-2); test: In vitro antimalarial [3H]-hypoxanthine incorporation serial dilution assay, W2; details: P. falciparum W2, 72 hours exposure; for IC50: Plasmodium falciparum
Procedure, shortened: as §1

Row | IC50 [1] [µg/mL] | IC50 [2] [µg/mL] | IC50 [3] [µg/mL] | SMILES | IC50 TM91C235 [1] [µg/mL] | IC50 D6 [2] [µg/mL] | IC50 W2 [3] [µg/mL]
1 | 0.343 | 0.469 | 0.389 | CC[C@H]1OC(=O)[C@H](C)[C@@H](O[C@H]2C[C@@](C)(OC)[C@@H](O)[C@H](C)O2)[C@H](C)[C@@H](O[C@@H]2O[C@H](C)C[C@H](N(C)C)[C@H]2O)[C@](C)(O)C[C@@H](C)CN(CCCNC(=S)Nc2ccsc2C(=O)OC)[C@H](C)[C@@H](O)[C@]1(C)O.O=CO [Example 147] | – | – | –
2 | 0.426 (≈ 0.407 µM) | 0.862 (≈ 0.825 µM) | 0.24 (≈ 0.229 µM) | CC[C@H]1OC(=O)[C@H](C)[C@@H](O[C@H]2C[C@@](C)(OC)[C@@H](O)[C@H](C)O2)[C@H](C)[C@@H](O[C@@H]2O[C@H](C)C[C@H](N(C)C)[C@H]2O)[C@](C)(O)C[C@@H](C)CN(CCCNC(=S)Nc2sc3c(c2C(=O)OC)CCCC3)[C@H](C)[C@@H](O)[C@]1(C)O [Example 148] | – | – | –
3 | 0.414 | 0.657 | 0.472 | CC[C@H]1OC(=O)[C@H](C)[C@@H](O[C@H]2C[C@@](C)(OC)[C@@H](O)[C@H](C)O2)[C@H](C)[C@@H](O[C@@H]2O[C@H](C)C[C@H](N(C)C)[C@H]2O)[C@](C)(O)C[C@@H](C)CN(CCCNC(=S)NCC(C)C)[C@H](C)[C@@H](O)[C@]1(C)O.O=CO [Example 149] | – | – | –
4 | 0.105 | 0.181 | 0.091 | CC[C@H]1OC(=O)[C@H](C)[C@@H](O[C@H]2C[C@@](C)(OC)[C@@H](O)[C@H](C)O2)[C@H](C)[C@@H](O[C@@H]2O[C@H](C)C[C@H](N(C)C)[C@H]2O)[C@](C)(O)C[C@@H](C)CN(CCCNC(=S)Nc2cccc3nsnc23)[C@H](C)[C@@H](O)[C@]1(C)O.O=CO [Example 150] | – | – | –
5 | 0.181 | 0.299 | 0.171 | CC[C@H]1OC(=O)[C@H](C)[C@@H](O[C@H]2C[C@@](C)(OC)[C@@H](O)[C@H](C)O2)[C@H](C)[C@@H](O[C@@H]2O[C@H](C)C[C@H](N(C)C)[C@H]2O)[C@](C)(O)C[C@@H](C)CN(CCCNC(=S)NC2CC3C=CC2C3)[C@H](C)[C@@H](O)[C@]1(C)O.O=CO (stereo partly drawn) [Example 151] | – | – | –
6 | 0.103 (≈ 0.121 µM) | 0.167 (≈ 0.197 µM) | 0.405 (≈ 0.476 µM) | CCNC(=O)NCCN1C[C@H](C)C[C@@](C)(O)[C@H](O[C@@H]2O[C@H](C)C[C@H](N(C)C)[C@H]2O)[C@@H](C)[C@H](O[C@H]2C[C@@](C)(OC)[C@@H](O)[C@H](C)O2)[C@@H](C)C(=O)O[C@H](CC)[C@@](C)(O)[C@H](O)[C@H]1C [Example 158, 9-Deoxo-9-dihydro-9a-[N′-(ethyl)carbamoyl-β-amino-ethyl]-9a-aza-9a-homoerythromycin A] | – | – | –
7 | 0.161 (≈ 0.157 µM) | 0.458 (≈ 0.446 µM) | 0.23 (≈ 0.224 µM) | CC[C@H]1OC(=O)[C@H](C)[C@@H](O[C@H]2C[C@@](C)(OC)[C@@H](O)[C@H](C)O2)[C@H](C)[C@@H](O[C@@H]2O[C@H](C)C[C@H](N(C)C)[C@H]2O)[C@](C)(O)C[C@@H](C)CN(CCCN(CCC(N)=O)C(=S)NCCc2ccccc2)[C@H](C)[C@@H](O)[C@]1(C)O [Example 166, 9-Deoxo-9-dihydro-9a-{N′-(β-amidoethyl)-N′-[β-(phenylethyl)thiocarbamoyl]-γ-aminopropyl}-9a-aza-9a-homoerythromycin A] | – | – | –

Continued, compound first:

Row | SMILES | IC50 [1] [µg/mL] | IC50 [2] [µg/mL] | IC50 [3] [µg/mL] | IC50 TM91C235 [1] [µg/mL] | IC50 D6 [2] [µg/mL] | IC50 W2 [3] [µg/mL]
8 | CC[C@H]1OC(=O)[C@H](C)[C@@H](O[C@H]2C[C@@](C)(OC)[C@@H](O)[C@H](C)O2)[C@H](C)[C@@H](O[C@@H]2O[C@H](C)C[C@H](N(C)C)[C@H]2O)[C@](C)(O)C[C@@H](C)CN(CCCNC(=S)NC(c2ccccc2)(c2ccccc2)c2ccccc2)[C@H](C)[C@@H](O)[C@]1(C)O.O=CO [Example 125] | 0.0364 | 0.142 | 0.0422 | – | – | –
9 | CC[C@H]1OC(=O)[C@H](C)[C@@H](O[C@H]2C[C@@](C)(OC)[C@@H](O)[C@H](C)O2)[C@H](C)[C@@H](O[C@@H]2O[C@H](C)C[C@H](N(C)C)[C@H]2O)[C@](C)(O)C[C@@H](C)CN(CCCNC(=S)Nc2cc(-c3ccccc3)ccc2OC)[C@H](C)[C@@H](O)[C@]1(C)O [Example 127] | 0.0571 (≈ 0.0553 µM) | 0.06 (≈ 0.0581 µM) | 0.117 (≈ 0.114 µM) | – | – | –
10 | CC[C@H]1OC(=O)[C@H](C)[C@@H](O[C@H]2C[C@@](C)(OC)[C@@H](O)[C@H](C)O2)[C@H](C)[C@@H](O[C@@H]2O[C@H](C)C[C@H](N(C)C)[C@H]2O)[C@](C)(O)C[C@@H](C)CN(CCCNC(=S)NC23CC4CC(CC(C4)C2)C3)[C@H](C)[C@@H](O)[C@]1(C)O [Example 130] | 0.15 (≈ 0.152 µM) | 0.545 (≈ 0.553 µM) | 0.207 (≈ 0.21 µM) | – | – | –
11 | CC[C@H]1OC(=O)[C@H](C)[C@@H](O[C@H]2C[C@@](C)(OC)[C@@H](O)[C@H](C)O2)[C@H](C)[C@@H](O[C@@H]2O[C@H](C)C[C@H](N(C)C)[C@H]2O)[C@](C)(O)C[C@@H](C)CN(CCCNC(=S)Nc2cccc(F)c2)[C@H](C)[C@@H](O)[C@]1(C)O.O=CO [Example 131] | 0.115 | 0.507 | 0.198 | – | – | –
12 | CC[C@H]1OC(=O)[C@H](C)[C@@H](O[C@H]2C[C@@](C)(OC)[C@@H](O)[C@H](C)O2)[C@H](C)[C@@H](O[C@@H]2O[C@H](C)C[C@H](N(C)C)[C@H]2O)[C@](C)(O)C[C@@H](C)CN(CCCNC(=S)Nc2ccc(Cl)c(Cl)c2)[C@H](C)[C@@H](O)[C@]1(C)O [Example 132] | 0.0839 (≈ 0.0842 µM) | 0.295 (≈ 0.296 µM) | 0.229 (≈ 0.229 µM) | – | – | –
13 | CC[C@H]1OC(=O)[C@H](C)[C@@H](O[C@H]2C[C@@](C)(OC)[C@@H](O)[C@H](C)O2)[C@H](C)[C@@H](O[C@@H]2O[C@H](C)C[C@H](N(C)C)[C@H]2O)[C@](C)(O)C[C@@H](C)CN(CCCNC(=S)Nc2ccc(F)c(F)c2F)[C@H](C)[C@@H](O)[C@]1(C)O [Example 133] | 0.0723 (≈ 0.0737 µM) | 0.441 (≈ 0.449 µM) | 0.162 (≈ 0.165 µM) | – | – | –
14 | CC[C@H]1OC(=O)[C@H](C)[C@@H](O[C@H]2C[C@@](C)(OC)[C@@H](O)[C@H](C)O2)[C@H](C)[C@@H](O[C@@H]2O[C@H](C)C[C@H](N(C)C)[C@H]2O)[C@](C)(O)C[C@@H](C)CN(CCCNC(=S)Nc2ccc(OC(F)F)cc2)[C@H](C)[C@@H](O)[C@]1(C)O.O=CO [Example 134] | 0.0997 | 0.398 | 0.279 | – | – | –
15 | CC[C@H]1OC(=O)[C@H](C)[C@@H](O[C@H]2C[C@@](C)(OC)[C@@H](O)[C@H](C)O2)[C@H](C)[C@@H](O[C@@H]2O[C@H](C)C[C@H](N(C)C)[C@H]2O)[C@](C)(O)C[C@@H](C)CN(CCCNC(=S)Nc2ccccc2F)[C@H](C)[C@@H](O)[C@]1(C)O.O=CO [Example 136] | 0.121 | 0.978 | 0.396 | – | – | –
16 | CC[C@H]1OC(=O)[C@H](C)[C@@H](O[C@H]2C[C@@](C)(OC)[C@@H](O)[C@H](C)O2)[C@H](C)[C@@H](O[C@@H]2O[C@H](C)C[C@H](N(C)C)[C@H]2O)[C@](C)(O)C[C@@H](C)CN(CCCNC(=S)Nc2ccc(Br)cc2)[C@H](C)[C@@H](O)[C@]1(C)O.O=CO [Example 137] | 0.182 | 0.274 | 0.178 | – | – | –
17 | CC[C@H]1OC(=O)[C@H](C)[C@@H](O[C@H]2C[C@@](C)(OC)[C@@H](O)[C@H](C)O2)[C@H](C)[C@@H](O[C@@H]2O[C@H](C)C[C@H](N(C)C)[C@H]2O)[C@](C)(O)C[C@@H](C)CN(CCCNC(=S)Nc2ccc(-n3cccn3)cc2)[C@H](C)[C@@H](O)[C@]1(C)O.O=CO [Example 140] | 0.105 | 0.166 | 0.114 | – | – | –
18 | CC[C@H]1OC(=O)[C@H](C)[C@@H](O[C@H]2C[C@@](C)(OC)[C@@H](O)[C@H](C)O2)[C@H](C)[C@@H](O[C@@H]2O[C@H](C)C[C@H](N(C)C)[C@H]2O)[C@](C)(O)C[C@@H](C)CN(CCCNC(=S)Nc2ccc(S(=O)(=O)N3CCCCC3)cc2)[C@H](C)[C@@H](O)[C@]1(C)O [Example 141] | 0.0731 (≈ 0.068 µM) | 0.188 (≈ 0.175 µM) | 0.057 (≈ 0.0531 µM) | – | – | –
19 | CC[C@H]1OC(=O)[C@H](C)[C@@H](O[C@H]2C[C@@](C)(OC)[C@@H](O)[C@H](C)O2)[C@H](C)[C@@H](O[C@@H]2O[C@H](C)C[C@H](N(C)C)[C@H]2O)[C@](C)(O)C[C@@H](C)CN(CCCNC(=S)Nc2ccc(N(C)C)c3ccccc23)[C@H](C)[C@@H](O)[C@]1(C)O.O=CO [Example 142] | 0.192 | 0.348 | 0.186 | – | – | –
20 | CC[C@H]1OC(=O)[C@H](C)[C@@H](O[C@H]2C[C@@](C)(OC)[C@@H](O)[C@H](C)O2)[C@H](C)[C@@H](O[C@@H]2O[C@H](C)C[C@H](N(C)C)[C@H]2O)[C@](C)(O)C[C@@H](C)CN(CCCNC(=S)NCc2ccco2)[C@H](C)[C@@H](O)[C@]1(C)O.O=CO [Example 143] | 0.234 | 0.322 | 0.439 | – | – | –
21 | CC[C@H]1OC(=O)[C@H](C)[C@@H](O[C@H]2C[C@@](C)(OC)[C@@H](O)[C@H](C)O2)[C@H](C)[C@@H](O[C@@H]2O[C@H](C)C[C@H](N(C)C)[C@H]2O)[C@](C)(O)C[C@@H](C)CN(CCCNC(=S)Nc2ccc(Oc3ccccc3)nc2)[C@H](C)[C@@H](O)[C@]1(C)O.O=CO [Example 146] | 0.142 | 0.23 | 0.117 | – | – | –
22 | CC[C@H]1OC(=O)[C@H](C)[C@@H](O[C@H]2C[C@@](C)(OC)[C@@H](O)[C@H](C)O2)[C@H](C)[C@@H](O[C@@H]2O[C@H](C)C[C@H](N(C)C)[C@H]2O)[C@](C)(O)C[C@@H](C)CN(CCCN(CCC(N)=O)C(=O)Nc2ccc(Cl)cc2Cl)[C@H](C)[C@@H](O)[C@]1(C)O [Example 169, 9-Deoxo-9-dihydro-9a-[N′-(β-amidoethyl)-N′-(2,4-dichlorophenyl)carbamoyl-γ-aminopropyl]-9a-aza-9a-homoerythromycin A] | – | – | – | 0.1475 (≈ 0.14 µM) | 0.2266 (≈ 0.216 µM) | 0.188 (≈ 0.179 µM)
